Assays:
MDA-MB-231 = experiment: Whole-cell binding assay on OBOC peptide beads; assay type: cell-based, human; details: peptide on TentaGel beads incubated with cells at 10^6 cells/ml; repeated 3 times
Description: (§1) The beads were washed extensively with double-distilled water and phosphate-buffered saline (PBS; Welgene Inc., Korea) before screening. Cancer and normal cells were detached from culture dishes with trypsin/EDTA (Gibco), washed with their corresponding culture medium, resuspended at 10^6 cells/ml, and incubated with OBOC beads in Petri dishes in a humidified CO2 incubator at 37 °C with shaking (60 rpm). Beads bound by cells appeared under a microscope as rosettes in which a central bead was covered by one or more layers of cells. The positive beads were picked with a pipette under an inverted microscope, treated with guanidine-HCL (8 M, 20 min) to remove cells and proteins on the bead surface, and subjected to a second round of screening with normal breast epithelial cells to eliminate false positive binding.
(§2) Note : Semiquantitative relative binding activity: “++++” very strong binding (>40 cells per bead), “+++” strong binding (30
(§3) -20 cells per bead), “+ +” moderate binding (20 - 10 cells per bead), “+” weak binding (5-10 cells per bead), “-” no binding. […]
(§4) Figure S1. A, Steps performed in peptide library synthesis and screening. 1, The split-mix synthesis method was performed to construct the combinatorial OBOC libraries. […]
(§5) sized. 3, OBOC libraries were incubated with cancer cells in a CO2 incubator. 4, Beads carrying ligands with an affinity for cell surface molecules became covered with cells. 5, The positive beads were picked with a pipette under an inverted microscope. 6, The peptide sequences for positive beads were determined by Edman microse - […]
(§6) peptide libraries. B, The binding specificities of the peptides against cancer cell and normal cells were deter- […]
(§7) breast and colorectal cancer cells and normal breast and colorectal cells were re-suspended at 10^6 cells/ml and incubated with beads. All experiments were repeated 3 times. Scale bar, 200 μm.

MCF-10A = experiment: Whole-cell binding assay on OBOC peptide beads; assay type: cell-based, human; details: peptide on TentaGel beads incubated with cells at 10^6 cells/ml; repeated 3 times
Description: as §1, §2, §3, §4, §5, §6, §7

[1] = In vitro stability test in human serum; details: 100 μM stock diluted 10-fold in 100% human serum, 37 °C, 0-24 h; analytical HPLC; triplicate
Description: Stock solutions of peptides (100 μM) were diluted by a factor of 10 with pre-warmed 100% human serum (Sigma-Aldrich, St. Louis, MO, USA) and incubated at 37 °C for 0, 3, 6, 9, and 24 h. Controls with peptides in PBS were included. The action was stopped by denaturing the serum proteins with urea at a final concentration of 3 M at 4 °C for 10 min, followed by precipitation of serum proteins with trichloroacetic acid at a final concentration of 7% (v/v) (4 °C, 10 min) and centrifugation (17,000 × g, 10 min). The supernatant of each sample was recovered and run on an analytical column using a linear gradient of 5-65% solvent B for 30 min at a flow rate of 1 ml/min, where solvent A was water containing 0.1% TFA and solvent B was acetonitrile containing 0.1% TFA. The percentage of peptide remaining in serum-treated samples was determined by comparing the height of the peptide peak obtained at each time point with that of the peptide peak obtained at the 0 time point. […]
(§8) bated at 37 °C for 0, 3, 6, 9, and 24 h. The portion of serum-treated peptide remaining was determined by calcu-lating the height of the respective elution peak in analytical-HPLC and comparing it with control without incuba- […]
Plasma peptide concentrations were quantified by ELISA, and pharmacokinetic profiles were analyzed using Phoenix WinNonlin 8.1 (Pharsight Corporation, Mountain View, CA, USA). […]

[2] = In vivo stability test (plasma pharmacokinetics after single intravenous injection); details: mouse
Description: After 15 min of centrifugation at 5,000 rpm and 4 °C, the plasma was obtained and stored at -80 °C. Plasma peptide concentrations were quantified by ELISA, and pharmacokinetic profiles were analyzed using Phoenix WinNonlin 8.1 (Pharsight Corporation, Mountain View, CA, USA). The area under the plasma concentration-time curve (AUC), distribution half-time (T1/2), maximum plasma concentration (Cmax) and time required to reach maximum plasma concentration (Tmax) values were directly determined from the experimental data. […]
as §8
Plasma peptide concentrations were quantified by ELISA, and pharmacokinetic profiles were analyzed using Phoenix WinNonlin 8.1 (Pharsight Corporation, Mountain View, CA, USA). The data are presented as the means ± standard deviation.

MDA-MB-231 cells = experiment: cells; details: Homo sapiens, MDA-MB-231, 48 h, read-out: IC50, MDA-MB-231 cells
Description: (§9) Cancer and normal cells (1 × 10^4 cells/well) were seeded in 96-well plates, incubated for 24 h, and then treated with increasing concentrations of AGM-330, PTX, and AGM-330-PTX for 48 h. Cell viability was assessed by the CellVia WST-1 assay (Young In Frontier) according to the manufacturer's instructions. The numbers of viable cells were measured at a wavelength of 450 nm using a VersaMax ELISA plate reader (Molecular Devices, San Jose, CA, USA).
(§10) Figure S3. A-C, Cancer and normal cells (1 × 10^4 cells/well) were seeded in 96-well plates. After 24 h of incuba-tion, the cells were treated with an increasing concentration of dimeric or tetrameric AGM-330 for 48 h. The viability of cells grown in 0 % FBS (A), 5 % FBS (B) or 10 % FBS (C) was assessed by a CellVia WST-1 assay (Young In Frontier, Seoul, Korea) according to the manufacturer’s instruction. The numbers of viable cells were measured at a wavelength of 450 nm using an VersaMax ELISA plate reader (Molecular Devices). D, E, Binding specificity of AGM-330. A whole-cell binding assay was performed to determine the cell binding of AGM-330 in 1 % FBS (D) or 5 % FBS (E). Scale bar, 200 μm.

MCF-10A cells = experiment: cells; details: Homo sapiens, MCF-10A, 48 h, read-out: IC50, MCF-10A cells
Description: as §9, §10

MDA-MB-231-luc xenograft = experiment: Tumorigenesis experiment, MDA-MB-231-luc breast cancer xenograft; details: tail vein twice a week; for average tumor volume: day 21, n = 5; for final average tumor weight: n = 5
Description: All animal experiments were performed in accordance with IACUC guidelines (GIST-2019-040). For tumorigenesis experiments, anesthetized 6-week-old female NOD-scid Il2rg^-^/^- mice (NPG^TM, VITALSTAR) were inoculated in the mammary fat pad with 1 × 10^6 MDA-MB-231-luc cells in a 100 μl volume (n = 5 for each group). After tumor cell inoculation, when the tumor volume reached approximately 100 mm^3, the mice were randomly divided into the following five groups: (i) control, (ii) low-dose paclitaxel (2 mg/kg), (iii) high-dose paclitaxel (10 mg/kg), (iv) AGM-330 (16.68 mg/kg, molar equivalent to 2 mg/kg of PTX), and (v) AGM-330-PTX (19.05 mg/kg, molar equivalent to 2 mg/kg of PTX). The tumor size was measured twice a week, and the tumor volume was calculated with the following formula: volume (mm^3) = [length (mm)] × [width (mm)]^2 × 0.5. For the bioluminescent imaging experiment, D-luciferin (150 mg/kg; PerkinElmer) was intraperitoneally injected into each mouse, and an IVIS 100 imaging system (Xenogen, Corporation, Alameda, CA) was used for bioluminescent monitoring. Mice were anesthetized with vaporized isofurane (BK Pharm, Ilsan, Korea) and placed in an imaging chamber. After 10 min, each animal was imaged with an exposure time of 1 min. All bioluminescent image data were obtained using Living Image software (version 4.5.2, PerkinElmer). Photons detected from tumors were converted to average radiance values (photon/sec/cm^2/sr), which are quantitative data obtained from a region of […] (ROI) and include the photons emitted by bioluminescent cells from an assigned rectangular area over the whole body of each mouse.
A, Cell proliferation inhibition by AGM-330-PTX treatment was determined for 48 h by the WST assay in multiple breast and colorectal cancer cells and in normal cells. B, Schematic representation of the experimental protocol as described in the materials and methods section. Anesthetized 6‑week-old […] NPG mice were inoculated with a 1:1 mix of Matrigel and 1 × 10^6 MDA-MB-231-luc cells into the mammary fat pad. When the volume of primary tumors reached approximately 100 mm^3, tumor-bearing mice were treated with vehicle (PBS), PTX (2 or 10 mg/kg), AGM-330 (16.68 mg/kg, molar equivalent to 2 mg/kg of PTX), or AGM-330-PTX (19.05 mg/kg, molar equivalent to 2 mg/kg of PTX; n = 5/group). C-E, The therapeutic effect of AGM-330-PTX was evaluated in breast cancer xenograft models. C, Primary tumor volume was measured twice a week until the day of sacrifice. The primary tumor volume was calculated by the formula volume (mm^3) = (length (mm)) × (width (mm))^2 × 0.5. D, On the day of sacrifice, all primary tumors were isolated, and (E) the primary tumor weights were evaluated. F-I, Immunohistochemistry (IHC) sections of representative tumors with Ki-67 (F,H) and TUNEL (G,I) staining. Nuclei were stained with DAPI (blue). Scale bar, 50 µm. Bar graphs represent the mean ± SD, and statistical analyses were performed by one-way ANOVA with Dunnett's multiple comparison. *, **, and *** indicate P < 0.05, P < 0.01, and P < 0.001, respectively.
Following in vitro proliferation analysis on cancer lines, we investigated whether AGM-330-PTX could be a potential therapeutic agent in vivo. We inoculated MDA-MB-231-luc cells into the mammary fat pad of NPG mice. After the […] tumors grew to 100 mm^3, comparative efficacy studies were performed by dividing the animals into five groups (n = 5/group) treated with vehicle (PBS), PTX (2 or 10 mg/kg, respectively), AGM-330 (16.68 mg/kg, molar equivalent to 2 mg/kg of PTX), or AGM-330-PTX (19.05 mg/kg, molar equivalent to 2 mg/kg of PTX) twice a week by tail vein injection (Figure 5B). Tumor growth was monitored by measuring volumes twice a week with a caliber rule over the course of 3 weeks.
Figure S11. A-E, NPG TM mice bearing MDA-MB-231-luc tumors were treated twice a week for 21 days with […]

[3] = molecular target: T1, full length recombinant NCL (OriGene) (UniProt P19338 1-710); experiment: SPR; Biacore T-200, 25 °C; full length recombinant NCL amine-coupled on CM5 (about 1000 RU); AGM-330 20 nM - 2.5 μM injected at 30 μl/min; HBS-EP (10 mM HEPES pH 7.4, 0.15 M NaCl, 3.4 mM EDTA, 0.05% Triton-X 100); KD = kd/ka; details: both partners purified
T1 construct: nucleolin, full length recombinant protein from OriGene; no catalogue number, species or tags are printed; source: bought: OriGene
T1 sequence (P19338 whole entry): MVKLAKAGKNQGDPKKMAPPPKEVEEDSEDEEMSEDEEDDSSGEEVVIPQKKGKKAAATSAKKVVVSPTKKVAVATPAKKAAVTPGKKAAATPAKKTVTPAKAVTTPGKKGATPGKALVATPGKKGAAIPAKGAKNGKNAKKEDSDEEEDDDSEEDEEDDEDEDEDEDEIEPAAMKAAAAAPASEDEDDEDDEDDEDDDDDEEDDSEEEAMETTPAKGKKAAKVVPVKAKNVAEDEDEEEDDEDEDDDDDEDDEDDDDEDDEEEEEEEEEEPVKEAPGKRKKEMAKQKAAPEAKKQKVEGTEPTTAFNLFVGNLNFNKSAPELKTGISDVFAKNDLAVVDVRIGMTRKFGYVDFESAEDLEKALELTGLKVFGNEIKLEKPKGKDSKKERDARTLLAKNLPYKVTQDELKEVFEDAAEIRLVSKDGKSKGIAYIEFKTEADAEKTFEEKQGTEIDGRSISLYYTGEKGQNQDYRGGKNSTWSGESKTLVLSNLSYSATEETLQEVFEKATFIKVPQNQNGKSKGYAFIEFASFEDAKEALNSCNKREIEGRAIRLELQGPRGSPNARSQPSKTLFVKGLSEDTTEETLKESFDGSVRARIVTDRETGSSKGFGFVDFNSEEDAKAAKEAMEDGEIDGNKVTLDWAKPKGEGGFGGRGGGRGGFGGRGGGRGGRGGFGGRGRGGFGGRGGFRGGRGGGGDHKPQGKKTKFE

## FGRLKKPLK [AGM-335, 9mer peptide hit from OBOC screening]
MDA-MB-231
  Semiquantitative relative binding activity, MDA-MB-231: + (weak binding (5-10 cells per bead))
MCF-10A
  Semiquantitative relative binding activity, MCF-10A: + (weak binding (5-10 cells per bead))

## ADHRHRRSG [AGM-331]
MDA-MB-231
  Semiquantitative relative binding activity, MDA-MB-231: ++++ (very strong binding (>40 cells per bead))
MCF-10A
  Semiquantitative relative binding activity, MCF-10A: ++ (moderate binding (20 - 10 cells per bead))

## KRRRKAPTD [AGM-337, 9mer peptide hit from OBOC screening]
MDA-MB-231
  Semiquantitative relative binding activity, MDA-MB-231: + (weak binding (5-10 cells per bead))
MCF-10A
  Semiquantitative relative binding activity, MCF-10A: + (weak binding (5-10 cells per bead))

## AVARARRRR [AGM-332]
MDA-MB-231
  Semiquantitative relative binding activity, MDA-MB-231: +++ (strong binding (30 -20 cells per bead))
MCF-10A
  Semiquantitative relative binding activity, MCF-10A: ++ (moderate binding (20 - 10 cells per bead))

## KRRRRERAG [AGM-336, 9mer peptide hit from OBOC screening]
MDA-MB-231
  Semiquantitative relative binding activity, MDA-MB-231: +++ (strong binding (30 -20 cells per bead))
MCF-10A
  Semiquantitative relative binding activity, MCF-10A: +++ (strong binding (30 -20 cells per bead))

## CSCC[C@H](NC(=O)[C@H](C)NC(=O)CNC(=O)[C@H](Cc1c[nH]cn1)NC(=O)[C@@H](N)CCCNC(=N)N)C(=O)N[C@H](C(=O)N[C@@H](Cc1ccc(O)cc1)C(=O)N[C@@H](CC(C)C)C(=O)N[C@@H](CCCCN)C(=O)O)C(C)C [AGM-330m]
[1]
  degradation after incubation with serum: rapidly degraded
[2]
  Cmax: 1.27 ± 0.12 µg/mL
  Tmax: 10 min

## CC(=O)O[C@H]1C(=O)[C@@]2(C)[C@H]([C@H](OC(=O)c3ccccc3)[C@]3(O)C[C@H](OC(=O)[C@H](O)[C@@H](NC(=O)c4ccccc4)c4ccccc4)C(C)=C1C3(C)C)[C@]1(OC(C)=O)CO[C@@H]1C[C@@H]2O [PTX, paclitaxel, reference compound]
MDA-MB-231 cells
  IC50: 0.37 µM
MCF-10A cells
  IC50: 0.45 µM
MDA-MB-231-luc xenograft; 2 mg/kg
  average tumor volume: 1671 ± 199 mm^3
  final average tumor weight: 2.1 ± 0.4 g
MDA-MB-231-luc xenograft; 10 mg/kg
  average tumor volume: 988 ± 78 mm^3
  final average tumor weight: 1.5 ± 0.1 g

## RWLKNKKAR [AGM-334, 9mer peptide hit from OBOC screening]
MDA-MB-231
  Semiquantitative relative binding activity, MDA-MB-231: ++ (moderate binding (20 - 10 cells per bead))
MCF-10A
  Semiquantitative relative binding activity, MCF-10A: +++ (strong binding (30 -20 cells per bead))

## RFLKNKKAR [AGM-333, 9mer peptide hit from OBOC screening]
MDA-MB-231
  Semiquantitative relative binding activity, MDA-MB-231: ++ (moderate binding (20 - 10 cells per bead))
MCF-10A
  Semiquantitative relative binding activity, MCF-10A: +++ (strong binding (30 -20 cells per bead))

B1: AGM-330 (tetrameric multiple-antigen-peptide form) (peptide)
peptide: RHGAMVYLK
modifications: PEG12 after the C-terminal Lys of each RHGAMVYLK arm (RHGAMVYLK-PEG12-OH), joined to a trilysine core
notes: arm of the dendrimer; picked from a one-bead-one-compound library on MDA-MB-231 cells; The core is not written as a chain; also called tetrameric AGM-330; source: synthetic peptide (AnyGen, solid-phase peptide synthesis)
[3]
  Kd: 0.0577 ± 0.012 µM

From article PMC7415810, “A novel nucleolin-binding peptide for Cancer Theranostics” (Theranostics, 2020)
